Test results from PMC4291083, “Ex Vivo Characterization of a Novel Iodine-123-Labelled Aminomethylchroman as a Potential Agonist Ligand for SPECT Imaging of Dopamine D2/3 Receptors” (International Journal of Molecular Imaging, 2014).
Marks after values point to notes of the source that are not given here.

Assay: Biodistribution studies in rats
Format: in vivo, Wistar rats
Conditions: for uptake ratio Frontal cortex/cereb. / uptake ratio Hippocampus/cereb. / uptake ratio Hypothalamus/cereb. / uptake ratio Midbrain/cereb. / uptake ratio Olfactory b./cereb. / uptake ratio Pons/medulla/cereb. / uptake ratio Striatum/cereb. / uptake ratio Thalamus/cereb. / uptake ratio Pituitary/cereb.: rats; for 123I radioactivity, Blood / 123I radioactivity, Cerebellum / 123I radioactivity, Fat: male rats
Experimental: [^123I]-1 (SA ≥ 37 MBq/nmol) was received after radiolabelling in an isotonic acetate (9% EtOH) buffer (pH 4.8). The solution was passed through a membrane filter (0.2 μm) and was diluted to the proper concentrations. Male Wistar rats (approximately 250 g body weight, obtained from Harlan/Charles River, Zeist, Netherlands) received an intravenous injection in the tail vein of approximately 3.7 MBq/0.4 mL buffer of [^123I]-1 under O2/CO2 anaesthesia. Distribution to the tissue was measured 15 min, 30 min, and 1, 2, 3, 4, and 24 h after the injection to determine the time course of uptake in several organs, including the brain. Four rats were killed at each time point via bleeding by heart puncture (to minimize contribution of blood activity) under O2/CO2 anaesthesia followed by cervical dislocation. Brain regions (cerebellum, frontal and prefrontal cortex, olfactory bulbs, pituitary, medulla with pons, midbrain, striatum, hypothalamus, hippocampus, and thalamus) and various peripheral tissues (heart, lung, liver, spleen, kidney, muscle, fat, and thymus) were quickly excised and weighted. The activity of [^123I] was assayed in a gamma counter, and data was corrected for decay and the amount of radioactivity was presented as percentage of the injected dose, multiplied by the body weight in kilograms, per gram tissue or blood. Selective uptake in the striatum was determined by calculating the ratio of radioactivity in the striatum in relation to that in the cerebellum, since the density of dopamine D2/3 receptor is negligible in this brain area in rats.

## Oc1ccc2c(c1)O[C@@H](CNCc1ccc([123I])cc1)CC2 [[^123I]-1]
15 min after i.v. injection
  uptake ratio Frontal cortex/cereb.: 2.962 ± 1.817
  uptake ratio Hippocampus/cereb.: 0.870 ± 0.303
  uptake ratio Hypothalamus/cereb.: 1.512 ± 0.546
  uptake ratio Midbrain/cereb.: 3.712 ± 4.715
  uptake ratio Olfactory b./cereb.: 0.431 ± 0.330
  uptake ratio Pons/medulla/cereb.: 1.470 ± 0.520
  uptake ratio Striatum/cereb.: 1.455 ± 1.265
  uptake ratio Thalamus/cereb.: 1.670 ± 0.908
  123I radioactivity, Blood: 0.291 ± 0.190 %ID × kg/g
  123I radioactivity, Cerebellum: 0.858 ± 0.384 %ID × kg/g
  123I radioactivity, Fat: 3.080 ± 2.656 %ID × kg/g
15 min after i.v. injection, only 1 sample
  uptake ratio Pituitary/cereb.: 1.157^*
30 min after i.v. injection
  uptake ratio Frontal cortex/cereb.: 1.543 ± 0.142
  uptake ratio Hippocampus/cereb.: 1.479 ± 0.466
  uptake ratio Hypothalamus/cereb.: 1.139 ± 0.014
  uptake ratio Midbrain/cereb.: 1.144 ± 0.051
  uptake ratio Olfactory b./cereb.: 0.893 ± 0.067
  uptake ratio Pituitary/cereb.: 2.262 ± 0.233
  uptake ratio Pons/medulla/cereb.: 1.036 ± 0.212
  uptake ratio Striatum/cereb.: 1.294 ± 0.061
  uptake ratio Thalamus/cereb.: 1.325 ± 0.074
  123I radioactivity, Blood: 0.486 ± 0.291 %ID × kg/g
  123I radioactivity, Cerebellum: 1.496 ± 0.478 %ID × kg/g
  123I radioactivity, Fat: 0.674 ± 0.102 %ID × kg/g
30 min to 4 h p.i., i.v., Wistar rats
  mean ratio of striatum/cerebellum binding: about 1.3
1 h after i.v. injection
  uptake ratio Frontal cortex/cereb.: 1.154 ± 0.095
  uptake ratio Hippocampus/cereb.: 1.390 ± 0.210
  uptake ratio Hypothalamus/cereb.: 1.189 ± 0.132
  uptake ratio Midbrain/cereb.: 1.207 ± 0.109
  uptake ratio Olfactory b./cereb.: 1.007 ± 0.050
  uptake ratio Pituitary/cereb.: 2.502 ± 0.883
  uptake ratio Pons/medulla/cereb.: 1.218 ± 0.109
  uptake ratio Striatum/cereb.: 1.246 ± 0.103
  uptake ratio Thalamus/cereb.: 1.243 ± 0.042
  123I radioactivity, Blood: 0.557 ± 0.087 %ID × kg/g
  123I radioactivity, Cerebellum: 0.627 ± 0.035 %ID × kg/g
  123I radioactivity, Fat: 0.509 ± 0.024 %ID × kg/g
2 h after i.v. injection
  uptake ratio Frontal cortex/cereb.: 1.145 ± 0.079
  uptake ratio Hippocampus/cereb.: 1.301 ± 0.047
  uptake ratio Hypothalamus/cereb.: 1.116 ± 0.085
  uptake ratio Midbrain/cereb.: 1.168 ± 0.080
  uptake ratio Olfactory b./cereb.: 1.125 ± 0.089
  uptake ratio Pituitary/cereb.: 4.399 ± 2.113
  uptake ratio Pons/medulla/cereb.: 1.205 ± 0.016
  uptake ratio Striatum/cereb.: 1.155 ± 0.069
  uptake ratio Thalamus/cereb.: 1.200 ± 0.067
  123I radioactivity, Blood: 0.446 ± 0.105 %ID × kg/g
  123I radioactivity, Cerebellum: 0.196 ± 0.037 %ID × kg/g
  123I radioactivity, Fat: 0.365 ± 0.094 %ID × kg/g
3 h after i.v. injection
  uptake ratio Frontal cortex/cereb.: 1.315 ± 0.360
  uptake ratio Hippocampus/cereb.: 1.294 ± 0.112
  uptake ratio Hypothalamus/cereb.: 1.326 ± 0.053
  uptake ratio Midbrain/cereb.: 1.224 ± 0.090
  uptake ratio Olfactory b./cereb.: 1.314 ± 0.150
  uptake ratio Pituitary/cereb.: 3.352 ± 1.490
  uptake ratio Pons/medulla/cereb.: 1.310 ± 0.114
  uptake ratio Striatum/cereb.: 1.331 ± 0.126
  uptake ratio Thalamus/cereb.: 1.582 ± 0.101
  123I radioactivity, Blood: 0.428 ± 0.082 %ID × kg/g
  123I radioactivity, Cerebellum: 0.178 ± 0.061 %ID × kg/g
4 h after i.v. injection
  uptake ratio Frontal cortex/cereb.: 0.865 ± 0.580
  uptake ratio Hippocampus/cereb.: 1.035 ± 0.114
  uptake ratio Hypothalamus/cereb.: 1.332 ± 0.103
  uptake ratio Midbrain/cereb.: 1.097 ± 0.086
  uptake ratio Olfactory b./cereb.: 1.333 ± 0.124
  uptake ratio Pituitary/cereb.: 3.570 ± 2.544
  uptake ratio Pons/medulla/cereb.: 1.214 ± 0.133
  uptake ratio Striatum/cereb.: 1.156 ± 0.080
  uptake ratio Thalamus/cereb.: 1.351 ± 0.175
  123I radioactivity, Blood: 0.393 ± 0.136 %ID × kg/g
  123I radioactivity, Cerebellum: 0.087 ± 0.043 %ID × kg/g
24 h after i.v. injection
  uptake ratio Frontal cortex/cereb.: 1.818 ± 0.372
  uptake ratio Hippocampus/cereb.: 1.031 ± 0.090
  uptake ratio Hypothalamus/cereb.: 1.989 ± 0.574
  uptake ratio Midbrain/cereb.: 1.426 ± 0.204
  uptake ratio Olfactory b./cereb.: 1.444 ± 0.163
  uptake ratio Pituitary/cereb.: 6.021 ± 0.577
  uptake ratio Pons/medulla/cereb.: 1.278 ± 0.211
  uptake ratio Striatum/cereb.: 2.023 ± 0.872
  uptake ratio Thalamus/cereb.: 2.473 ± 0.599
  123I radioactivity, Blood: 0.081 ± 0.049 %ID × kg/g
  123I radioactivity, Cerebellum: 0.014 ± 0.002 %ID × kg/g
